Tests used:
Format in all cases: cell-based
[1] = system: human engineered heart tissue (hEHT); assay: Contractility detection of human EHT by mechanical assay (force transducer, stretch)
Description: 1) After EHT was constructed and cultured for 5-7 days (the medium was changed every other day), the EHTs had good structure and beat regularly.
(§1) 2) EHT was stimulated by 500 μM PA, and for the control group, it contained the same concentration of BSA and ethanol. After 24 hours and 72 hours of stimulation, the supernatant and tissue samples were collected for functional detection.
3) A contractility detection system by mechanical assay: the mechanical characteristics of the bundle were detected by using a mechanical measurement platform, in which the bath, platinum electrode, tissue fixation device, and assembly form were self-designed, and other components such as sensors, amplifiers, digital-to-analog converters, data acquisition software, stepper motors, supporting components, temperature controllers and stimulators were all commercially available and assembled in-house after procurement.
4) Experimental steps for contractility detection by mechanical assay: the instrument was preheated for 30 minutes in advance, and the sensor was calibrated with precision weights by gravity. The Tyrode's Solution containing 1.8 mM CaCl2 was put into a 37° C. water bath for preheating in advance, and the platform was set to 37° C. The bundle was dipped into the Tyrode's Solution, and both ends were fixed with specimen needles, wherein one of which was fixed on the sensor and the other was fixed on the bath. Data were collected after the microstructure was balanced for 2 min. Start the electrical stimulator, and stimulate the bundle electrically at a voltage of 10 V and frequencies of 1, 1.5, 2, 2.5, and 3 Hz. Start the stepper motor to control software to start the programmed stretching program, and stretch the bundle from the initial state (8 mm) by 12% (0.96 mm) of the initial length, stretching 2% (0.16 mm) each time, collecting data for 40 s in each stretching state, and collecting contraction force data under different stretching states. After stretching, end the collection and save the data. The collected data were analyzed by the customized program MATLAB software.

[2] = system: human engineered heart tissue (hEHT); assay: Optical mapping detection of human EHT electrical conduction
Description: 1) The electrode was made of 0.2 mm platinum wire, and the conductive function was tested using a sealed membrane nickel wire interface.
2) Fluo-4/RHOD2 was dissolved in DMSO (dimethyl sulfoxide) with a volume ratio of 1:1 to prepare a stock solution, which was then added into EHT medium at a ratio of 1:1,000 (working solution), incubated at 37° C. for 20 min, followed by washing with DPBS twice, then incubated with serum-free EHT medium at 37° C.
3) Preparation of medium for imaging: 10 μM Blebbistatin was added into the Tyrode's Solution or serum-free EHT medium in a volume ratio of 1:2,000 for imaging. The medium for imaging was added into a PDMS dish, the EHT was fixed on the dish with a specimen needle, put in a 41° C. temperature control chamber, and the electrode was put on one side of the EHT; an optical mapping camera was used for formal imaging, and the preview speed of 600 ms was recorded in 10 seconds, then recording was conducted in the cases where there was no electrical stimulation and 1 Hz electrical stimulation, respectively, in which the laser intensity was MAX: 12-16%.
The collected data were analyzed by optical mapping software.

[3] = system: human engineered heart tissue (hEHT); assay: LDH myocardial injury marker in hEHT model; conditions: 500 μM PA, 72 h stimulation
Description: In the present disclosure, an in vitro tissue model of diabetic cardiomyopathy obtained by the above construction method is also provided. According to the disclosure, it is identified that a diabetic cardiomyopathy tissue model is generated with myocardial contractility that ranges from unchanged (1 day) to decreased (3 days), concomitant with the appearance of a myocardial fibrosis phenotype by dynamic stimulation of hEHT with 500 μM PA.
as §1

[4] = system: human engineered heart tissue (hEHT); assay: H&E staining and immunofluorescence staining of human EHT (fibrosis)
Description: For the morphological and histological observation after Bundle stimulation, the tissue was first treated by conventional paraffin embedding methods, and then the tissue was stained by basic staining and immunofluorescence staining after slicing. The specific steps were as follows: • (1) Cleaning the bundle twice using DPBS without calcium and magnesium ions. • (2) Fixing the bundle with 4% PFA (Paraformaldehyde) at room temperature for 15 min. • (3) Placing the fixed bundle in a paraffin tissue embedding frame and rinsing it with running water for 2 h. • (4) The […] bundle was subjected to gradient dehydrating and wax dipping using a Dewaxer (Hisure Scientific Co., Ltd.) with a total of 12 cylinders under the following conditions: 70% ethanol for 1 h, 80% ethanol for 1 h, 80% ethanol for 0.5 h, 90% ethanol for 0.5 h, 90% ethanol for 0.5 h, 100% ethanol for 0.5 h, xylene for 0.5 h, xylene for 0.5 h, paraffin at 63° C. for 5 min, paraffin at 63° C. for 5 min and paraffin at 63° C. for 5 min. • (5) After the dehydrated Bundle was placed at the bottom of the iron frame molding tool with an appropriate size, the plastic embedding frame was placed on the iron frame molding tool, and then placed on the freezing platform. […] After adding the anti-fluorescence quencher dropwise, the coverslip was covered, and the slide was mounted with nail polish.

[5] = system: human pluripotent stem cell-derived cardiomyocytes; assay: CCK8 survival rate of human pluripotent stem cell-derived cardiomyocytes (planar monolayer); conditions: 250 μM PA, 24 h, versus 30 mM Glucose and 10 nM ET-1 + glucocorticoid, single or combined factors
Description: FIG. 2A-FIG. 2B show the results of confirming the effects of different metabolic factors on survival rate of the cardiomyocytes in the present disclosure.
3) Diluting PA with a final concentration of 250 μM, 500 μM, and 750 μM using cells or EHT medium to stimulate human-derived cardiomyocytes or EHTs. An equivalent amount of ethanol was dissolved in 10% BSA, which was diluted with medium finally as a control solution.
In the present disclosure, firstly, differentiated human cardiomyocytes were paved into planar monolayer cells, and then the cell survival rate was detected by adding 30 mM Glucose, 250 μM PA, 10 nM endothelin (ET-1) and […] glucocorticoid to the medium as single or combined factor(s), respectively, it is identified that the most obvious diabetic stimulus factor for cardiomyocyte injury was PA (FIG. 2A-FIG. 2B). Furthermore, different concentrations of PA were used to stimulate cardiomyocytes, and the concentration and time-dependent effects were evaluated (FIG. 3A). The injury effect of PA was determined through myocardial injury marker LDH (FIG. 3B).

[6] = Empagliflozin added with 500 μM PA, 24 hours' stimulation

In the case of `OC[C@H]1O[C@@H](c2ccc(Cl)c(Cc3ccc(O[C@H]4CCOC4)cc3)c2)[C@H](O)[C@@H](O)[C@@H]1O` [Empagliflozin], the “number of abnormal diastolic peaks of PA-stimulated hEHT” value ([1]; Empagliflozin added with 500 μM PA, under stretch conditions) is reported as “reduced number”, the “APD80 of PA-stimulated human EHT” value [2, 6] is reported as “improved” and the “contraction amplitude of PA-stimulated human EHT” value [2, 6] is reported as “effectively recover”. For the same compound, the “electric signal conduction velocity of PA-stimulated human EHT” value [2, 6] was “effectively recover”.
`CCCCCCCCCCCCCCCC(=O)O` [PA, palmitic acid] was tested, and the LDH [3] was “increased significantly”, the “pathological changes and level of fibrosis inside human EHT” value ([4]; 24 hours after PA stimulation) was “no obvious pathological changes and changes in the level of fibrosis” and the “fibrosis inside the heart tissue” value ([4]; 72 hours after PA stimulation) was “obvious fibrosis”. For the same compound, the “cardiomyocyte survival rate (CCK8)” value [5] was “lowest”, the “abnormal relaxation (diastolic) peak” value ([1]; 500 μM PA, 24 h stimulation) was “abnormal relaxation peak” and the “myocardial relaxation time (diastolic duration)” value ([1]; 500 μM PA, 24 h stimulation) was “prolonged”. The “positive contractility (contraction force)” value ([1]; 500 μM PA, 24 h stimulation) was “did not affect”, the “abnormal peaks (diastolic)” value ([1]; 500 μM PA, 72 h stimulation) was “more frequent” and the “inotropic force (contraction force)” value ([1]; 500 μM PA, 72 h stimulation) was “significant decrease”. For the same compound, the “relaxation time (diastolic duration)” value ([1]; 500 μM PA, 72 h stimulation) was “more frequent prolongation”, the APD50 ([2]; 500 μM PA, 6 h stimulation) was “obviously increased” and the APD80 ([2]; 500 μM PA, 6 h stimulation) was “obviously increased”. For the same compound, the contraction amplitude ([2]; 500 μM PA, 6 h stimulation) was “not decreased” and the “electric signal conduction velocity” value ([2]; 500 μM PA, 6 h stimulation) was “not decreased”.

— patent US20250034525A1, “CONSTRUCTION METHOD, DETECTION METHOD, AND APPLICATION OF IN VITRO TISSUE MODEL OF DIABETIC CARDIOMYOPATHY” (HUBEI UNIVERSITY, priority 2023, published 2025)
